In patent US20080145316A1, “Skin coating with microbial indicator” (priority 2006, published 2008):

Columns and labels:
[1] = test system: S. aureus; assay: Color change measurement with spectrometer (Minolta cm-2600d), film area before and after exposure to microbes; settings: CIELAB, cured InteguSeal film before vs after exposure to microbes
Text: The color change inherent in the skin coating with indicator may be considered as a visual indicator with the user visually observing a color change as a signal that infection or microbial contamination is present, or the color change could also be measured electronically. Such measurements could be conducted using an optical device or other spectroscopic methods known to those skilled in the art to measure changes in color such as spectrophotometers and spectrodenitometers. The instruments measure color space (as described in “Pocket guide to digital printing” (1997) by Frank Cost, Delmar Publishers Inc., at page 144), the most widely used color space is CIELAB. This defines three variables, L*, a*, and b*, that have the following meaning:
Because CIELAB color space is somewhat uniform, a single number can be calculated that represents the difference between two colors as perceived by the human being. This difference is termed ΔE and is calculated by taking the square root of the sum of the squares of the three differences (ΔL*, Δa*, and Δb*) between the two colors (i.e. starting color and after color change).
Although in each of the examples described above the color change when in contact with microbes was clearly visible it would also be possible to measure this color change with an optical color change meter or sensor. This was conduced on Examples 1, 2, and 3 by illustration. The color change was measured using a spectrometer (Minolta cm-2600d. Minolta Co., Japan) and the reading obtained by measuring the film area before and after exposure to microbes. The reading was recorded in units of ΔE.

[2] = test system: E. coli; assay: Colour change of cured film containing indicator dye on contact with E. coli suspension; settings: for time to visible color change of film / visually observed color change: 100 μL E. coli 10^5 CFU/mL on cured InteguSeal film, dye 200-300 ppm
Protocol: A 2 gram solution of 300 ppm Phenol Red (from Sigma-Aldrich) in InteguSeal® skin sealant was prepared by mixing the ingredients to give a pale pink-gray liquid. 25 mg of the mixture was then placed onto a glass slide and spread out using a glass rod to give a thin coating smear on the glass. After the mixture fully cured (5 minutes) 100 μL of suspension of E. coli bacteria at 10^5 CFU/mL was placed onto the cured sealant and visually observed for any color change. […] No color change or development was observed when the color media or water was placed on the sealant film.
(§1) Reichardt's dye (from Sigma-Aldrich) was mixed into 2 grams of InteguSeal® skin sealant containing an extra 0.2 gram of tributyl o-acetylcitrate placticizer (from Sigma-Aldrich) to give a deep blue solution with 200 ppm concentration of the dye. A drop (25 mg) of the mixture was then placed onto a microscope glass slide (5 cm×7.5 cm) and spread out using a glass rod to give thin coating smear (3 cm×2 cm). After complete cure had occurred (5 minutes) the cured film was exposed to a suspension of E. coli (gram negative bacteria) at 10^5 CFU/mL (colony forming units). 100 μL of this suspension was placed onto a spot on the cured film and the area observed. In less than 10 seconds the area in contact with the bacteria suspension decolorized, visually indicating the contamination. When a 100 μL sample of the control media broth or water alone was placed on the sealant no color discharge was observed. On a separate untouched part of the cured film was placed 100 μL suspension of A. niger (mold) at 10^5 CFU/mL and the area again observed. In less than 10 seconds the Reichardt's dye had decolorized where the mold suspension was in contact with the film.
Phenol red was dissolved in 3 other curable resins at a concentration of 300 ppm and tested with E. coli as described in example 5 above. The resins tried were: • Elmer's glue-all (Elmer's Products Inc., Columbus Ohio) • Contact cement (DAP Weldwood Inc., Dayton, Ohio) • Gelatin USP (unflavored. The Kroger Co., Cincinnati, Ohio) 100 μL suspension of E. coli was then placed on the cured film and visually observed. In all three resins the area in direct contact with the bacteria suspension turned red.

[3] = test system: S. aureus; assay: Colour change of cured skin sealant film containing indicator dye on contact with S. aureus suspension; settings: 100 μL S. aureus 10^6 CFU/mL on cured InteguSeal film, dye 200-300 ppm
Protocol: Reichardt's dye (from Sigma-Aldrich Chemical Co. Inc., Milwaukee Wis.) was mixed into 2 grams of InteguSeal® skin sealant (Medlogic Global Ltd., Cornwall, UK) containing an extra 0.2 gram of tributyl o-acetylcitrate placticizer (from Sigma-Aldrich) to give a deep blue solution with 200 ppm concentration of the dye. A drop (25 mg) of the mixture was then placed onto a microscope glass slide (5 cm×7.5 cm) and spread out using a glass rod to give thin coating smear (3 cm×2 cm). After complete cure had occurred (5 minutes) the cured film was exposed to a suspension of S. aureus (gram positive bacteria) at 10^6 CFU/mL (colony forming units). 100 μL of this suspension was placed onto a spot on the cured film and the area observed. In less than 10 seconds the area in contact with the bacteria suspension decolorized, visually indicating the contamination. When a 100 μL sample of the control media broth or water alone was placed on the sealant no color discharge was observed.
A 2 gram blue-purple solution of 300 ppm Chrome Azurol S (from Sigma-Aldrich) in InteguSeal® skin sealant was prepared to give a 300 ppm concentration of the dye. A drop 25 mg of the mixture was placed onto a glass slide and spread using a glass rod to give a thin smear. The sealant was allowed to fully cure (5 minutes). After this time 100 μL suspension of S. aureus at 10^6 CFU/mL was placed on the cure sealant and then visually observed for a color change.
A 2 gram solution of 300 ppm Phenol Red (from Sigma-Aldrich) in InteguSeal® skin sealant was prepared by mixing the ingredients to give a pale pink-gray liquid. 25 mg of the mixture was then placed onto a glass slide and spread out using a glass rod to give a thin coating smear on the glass. After the mixture fully cured (5 minutes) 100 μL of suspension of S. aureus bacteria at 10^6 CFU/mL was placed onto the cured sealant and visually observed for any color change. […] No color change or development was observed when the color media or water was placed on the sealant film.
A 2 gram sample of 300 ppm Eriochrome Blue Black B (from Sigma-Aldrich) in InteguSeal® skin sealant was prepared by mixing the ingredients to give a gray-blue mixture. 25 mg of the mixture was placed on a glass slide and spread with a glass rod to give a thin smear. The film was allowed to fully cure (5 minutes) and then 100 μL of S. aureus suspension at 10^6 CFU/mL was applied to the cured film and observed for a color change. […] No color change was observed when control media or water was applied to the film.

[4] = test system: A. niger; assay: Colour change of cured skin sealant film containing indicator dye on contact with A. niger suspension; settings: 100 μL A. niger (mold) 10^5 CFU/mL on cured InteguSeal film, dye 200 ppm
Protocol: as §1

SMILES	color change ΔE [1]	time to visible color change of film [2]	visually observed color change [2]	visually observed color change in other curable resins ([2]; 300 ppm dye in Elmer's glue-all, Contact cement, Gelatin USP, 100 μL E. coli suspension on cured film, all three resins)	time to visible color change of film [3]	visually observed color change [3]	time to visible color change of film [4]	visually observed color change [4]
O=S1(=O)OC(c2ccc(O)cc2)(c2ccc(O)cc2)c2ccccc21 [Phenol Red, phenolsulfonephthalein]	35 ΔE	less than 5 seconds	bright red color developed	turned red	less than 5 seconds	bright red color developed	–	–
[O-]c1c(-c2ccccc2)cc(-[n+]2c(-c3ccccc3)cc(-c3ccccc3)cc2-c2ccccc2)cc1-c1ccccc1 [Reichardt's dye, 4-(2,4,6-triphenylpyridinium-1-yl)-2,6-diphenylphenolate]	32 ΔE	less than 10 seconds	decolorized	–	less than 10 seconds	decolorized	less than 10 seconds	decolorized
O=S(=O)([O-])c1cc(O)c(/N=N/c2ccc3ccccc3c2O)c2ccccc12.[Na+] [Eriochrome Blue Black B]	–	–	–	–	less than 5 seconds	film color was discharged to leave a colorless spot	–	–
CC1=C/C(=C(\c2cc(C)c(O)c(C(=O)[O-])c2)c2c(Cl)ccc(S(=O)(=O)[O-])c2Cl)C=C(C(=O)[O-])C1=O.[Na+].[Na+].[Na+] [Chrome Azurol S]	27 ΔE	–	–	–	≤ 5 s	red color developed	–	–
